Data as given in ChEMBL document CHEMBL1201862, “PubChem BioAssay data set” (2004).
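48-hour exposure; five concentrations; linearly interpolated endpoints. GI50 is the concentration that inhibits growth by half.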 Activity calls are given as the source filed them. Cut-off read from the data, not from the text of the source: active = GI50 up to about 1.1 µM and inactive = higher.

Columns and labels:
Assay in all cases: NCI tumour cell line growth inhibition, 48 h
786-0 = test system: 786-0
A498 = test system: A498
A549 = test system: A549
ACHN = test system: ACHN
BT-549 = test system: BT-549
CAKI-1 = test system: CAKI-1
CCRF-CEM = test system: CCRF-CEM
COLO 205 = test system: COLO 205
DU-145 = test system: DU-145
EKVX = test system: EKVX
HCC 2998 = test system: HCC 2998
HCT-116 = test system: HCT-116
HCT-15 = test system: HCT-15
HOP-62 = test system: HOP-62
HOP-92 = test system: HOP-92
HT-29 = test system: HT-29
Hs-578T = test system: Hs-578T
IGROV-1 = test system: IGROV-1
K562 = test system: K562
KM12 = test system: KM12
LOX IMVI = test system: LOX IMVI
M14 = test system: M14
MDA-MB-231 = test system: MDA-MB-231
MDA-MB-435 = test system: MDA-MB-435
MDA-N = test system: MDA-N
MOLT-4 = test system: MOLT-4
Malme-3M = test system: Malme-3M
NCI-H226 = test system: NCI-H226
NCI-H23 = test system: NCI-H23
NCI-H460 = test system: NCI-H460
NCI-H522 = test system: NCI-H522
NCI/ADR-RES = test system: NCI/ADR-RES
OVCAR-3 = test system: OVCAR-3
OVCAR-4 = test system: OVCAR-4
OVCAR-5 = test system: OVCAR-5
OVCAR-8 = test system: OVCAR-8
PC-3 = test system: PC-3
RPMI-8226 = test system: RPMI-8226
RXF 393 = test system: RXF 393
SF-268 = test system: SF-268
SF-295 = test system: SF-295
SF-539 = test system: SF-539
SK-MEL-28 = test system: SK-MEL-28
SK-MEL-2 = test system: SK-MEL-2
SK-MEL-5 = test system: SK-MEL-5
SK-OV-3 = test system: SK-OV-3
SN12C = test system: SN12C
SNB-19 = test system: SNB-19
SNB-75 = test system: SNB-75
SR = test system: SR
SW-620 = test system: SW-620
T47D = test system: T47D
TK-10 = test system: TK-10
U-251 = test system: U-251
UACC-257 = test system: UACC-257
UACC-62 = test system: UACC-62
UO-31 = test system: UO-31

CN(C)c1nc2n(CCO)c(-c3ccccc3)c(-c3ccccc3)nc-2c(=O)n1
GI50 (786-0): > 100 µM (inactive) | GI50 (A498): > 100 µM (inactive) | GI50 (A549): > 100 µM (inactive) | GI50 (ACHN): > 100 µM (inactive) | GI50 (BT-549): > 100 µM (inactive) | GI50 (CAKI-1): > 100 µM (inactive) | GI50 (CCRF-CEM): > 100 µM (inactive) | GI50 (COLO 205): > 100 µM (inactive) | GI50 (DU-145): > 100 µM (inactive) | GI50 (EKVX): > 100 µM (inactive) | GI50 (HCC 2998): > 100 µM (inactive) | GI50 (HCT-116): > 100 µM (inactive) | GI50 (HCT-15): > 100 µM | GI50 (HOP-62): > 100 µM (inactive) | GI50 (HOP-92): > 100 µM (inactive) | GI50 (HT-29): > 100 µM (inactive) | GI50 (Hs-578T): > 100 µM (inactive) | GI50 (IGROV-1): > 100 µM (inactive) | GI50 (K562): > 100 µM (inactive) | GI50 (KM12): > 100 µM (inactive) | GI50 (LOX IMVI): > 100 µM (inactive) | GI50 (M14): > 100 µM (inactive) | GI50 (MDA-MB-231): > 100 µM (inactive) | GI50 (MDA-MB-435): > 100 µM (inactive) | GI50 (MDA-N): > 100 µM (inactive) | GI50 (MOLT-4): > 100 µM (inactive) | GI50 (Malme-3M): > 100 µM (inactive) | GI50 (NCI-H226): > 100 µM (inactive) | GI50 (NCI-H23): > 100 µM (inactive) | GI50 (NCI-H460): > 100 µM (inactive) | GI50 (NCI-H522): > 100 µM (inactive) | GI50 (NCI/ADR-RES): > 100 µM (inactive) | GI50 (OVCAR-3): > 100 µM (inactive) | GI50 (OVCAR-4): > 100 µM (inactive) | GI50 (OVCAR-5): > 100 µM (inactive) | GI50 (OVCAR-8): > 100 µM (inactive) | GI50 (PC-3): > 100 µM (inactive) | GI50 (RPMI-8226): > 100 µM (inactive) | GI50 (RXF 393): > 100 µM (inactive) | GI50 (SF-268): > 100 µM (inactive) | GI50 (SF-295): > 100 µM (inactive) | GI50 (SF-539): > 100 µM (inactive) | GI50 (SK-MEL-28): > 100 µM (inactive) | GI50 (SK-MEL-2): > 100 µM (inactive) | GI50 (SK-MEL-5): > 100 µM (inactive) | GI50 (SK-OV-3): > 100 µM (inactive) | GI50 (SN12C): > 100 µM (inactive) | GI50 (SNB-19): > 100 µM (inactive) | GI50 (SNB-75): 21.7 µM (inactive) | GI50 (SR): > 100 µM (inactive) | GI50 (SW-620): > 100 µM (inactive) | GI50 (T47D): > 100 µM (inactive) | GI50 (TK-10): > 100 µM (inactive) | GI50 (U-251): > 100 µM (inactive) | GI50 (UACC-257): > 100 µM (inactive) | GI50 (UACC-62): > 100 µM (inactive) | GI50 (UO-31): > 100 µM (inactive)
